“And” between values parts separate entries of the source, which are not always exact repeats. Equal entries are not always repeated.
Legend:
[1] = tested on: NO production in LPS-stimulated RAW 264.7 cells; assay: Nitric oxide production inhibitory assay (Griess) in LPS-stimulated RAW 264.7 cells; format: cell-based, murine; details: for IC50: Mus musculus, RAW264.7, LPS (2 μg/mL), 24 h; for reduction of NO production: 100 μg/mL
Method: (§1) Cancerous cell lines (MCF-7: human breast adenocarcinoma cells; HepG2: human hepatocellular carcinoma cells; Caco-2: human epithelial colorectal adenocarcinoma cells; A549: human epithelial lung adenocarcinoma cells), obtained from the American Type Culture Collection (ATCC) (Rockville, MD, United States of America), were cultured in Dulbecco’s Modified Eagle’s Medium (DMEM) high glucose (4.5 g/L) containing L-glutamine (4 mM) and sodium-pyruvate (Hyclone™) supplemented with 10% (v/v) fetal bovine serum (FBS) (Capricorn Scientific GmbH, South America), and incubated at 37°C with 5% CO2 in a humidified environment. African green monkey (Vero) kidney cells (also obtained from ATCC), a non-cancerous cell line, were grown in DMEM high glucose (4.5 g/L) containing L-glutamine (Lonza, Belgium) and supplemented with 5% FBS (Capricorn Scientific GmbH, South America) and 1% gentamicin (Virbac, RSA) in the same environment as cancer cells. The RAW 264.7 murine macrophage cells (obtained from ATCC) were cultured in DMEM high glucose (4.5 g/L) containing L-glutamine (Lonza, Belgium), supplemented with 10% FBS (Capricorn Scientific GmbH, South America) and 1% penicillin/streptomycin/fungizone (PSF) solution, and kept at 37°C in a 5% CO2 humidified environment.
Nitric oxide (NO) production was evaluated in lipopolysaccharide (LPS)-stimulated RAW 264.7 cells by measuring the influence of tested compounds on the accumulation of nitrite, an indicator of NO in the cell supernatant, which can be detected with Griess reagent (Merck, Darmstadt, Germany). Briefly, the RAW 264.7 cells at their exponential growth phase were seeded at a density of 2×10^4 cells per well in 96 well-microtiter plates, and they were incubated overnight at 37°C in a 5% CO2 humidified environment to allow attachment. […] Then, culture medium containing LPS (2 μg/mL) was added to each well and further incubated for 24 h at 37°C in a 5% CO2 humidified environment. Thereafter, 100 μL of cell supernatant from each well were transferred into a new 96-well microtiter plate and an equal volume of Griess reagent was added according to protocol described by the manufacturer. The microtiter plate was incubated for 10 min in the dark at room temperature, and the absorbance of the mixture was measured at 550 nm on a microplate reader (Synergy Multi-Mode Reader, BioTek, Winooski, United States of America). The quantity of nitrite was determined from a sodium nitrite standard curve, and the percentage of NO production was calculated based on the ability of each tested sample to inhibit nitric oxide production by LPS-stimulated RAW 264.7 cells compared to the control (cells treated with LPS without samples which was considered as 100% NO production). Additionally, the cell viability of treated cells was determined by using the MTT assay as previously described ([Mosmann, 1983]).

[2] = tested on: HepG2 cells; assay: MTT antiproliferation assay, HepG2; format: cell-based, human; details: for IC50: Homo sapiens, HepG2, 48 h, MTT; for SI values HepG2: IC50 of non-cancerous Vero cells divided by IC50 of HepG2
Method: as §1
(§2) The cancerous and non-cancerous cells were seeded at a density of 10^4 cells per well in 96-well microtiter plates, and they were incubated overnight at 37°C with 5% CO2 in a 5% CO2 humidified environment in order to allow the attachment of cells at the bottom of the plates. Then, the cells were exposed to increasing concentrations of compounds (100, 50, 25, 10 and 5 μg/mL) dissolved in dimethyl sulfoxide (DMSO) and further diluted in fresh culture medium. In this assay, the final concentration of DMSO in the culture medium was 0.5% used as negative control while doxorubicin hydrochloride (Pfizer, United States of America) was used as a positive control. The culture plates were incubated for 48 h at 37°C in a 5% CO2 humidified environment, after which the culture medium was discarded, and replaced by 200 µL of fresh culture medium with 30 µL of 3-(4,5-dimethylthiazol-2-yl)-2,5-diphenyl-2H-tetrazolium bromide (MTT) (5 mg/mL) dissolved in phosphate buffered saline ([Mosmann, 1983]). After 4 h of incubation, the medium was gently removed, and the formazan crystals were solubilized in 50 µL of DMSO. The absorbance was measured at 570 nm after shaking for 1 min on a microplate reader (Synergy Multi-Mode Reader, BioTek, Winooski, United States of America).
(§3) The cell viability rate was determined at each concentration of the compound as a percentage of cells treated with DMSO at 0.5% used as negative control. […] The selectivity index (Supporting Material) values were calculated for each compound by dividing the IC50 of non-cancerous cells by the IC50 of cancerous cells in the same units ([Mfotie Njoya et al., 2018]; [Mfotie Njoya et al., 2020]).

[3] = tested on: MCF-7 cells; assay: MTT antiproliferation assay, MCF-7; format: cell-based, human; details: for IC50: Homo sapiens, MCF7, 48 h, MTT; for SI values MCF7: IC50 of non-cancerous Vero cells divided by IC50 of MCF-7
Method: as §1, §2, §3

[4] = tested on: Vero cells; assay: MTT antiproliferation assay, non-cancerous Vero cells; format: cell-based, African green monkey; details: for IC50: Chlorocebus sabaeus, Vero, 48 h, MTT
Method: as §1, §2, §3

[5] = tested on: A549 cells; assay: MTT antiproliferation assay, A549; format: cell-based, human; details: for IC50: Homo sapiens, A549, 48 h, MTT; for SI values A549: IC50 of non-cancerous Vero cells divided by IC50 of A549
Method: as §1, §2, §3

[6] = tested on: RAW 264.7 cells; assay: MTT cell viability of LPS-stimulated RAW 264.7 cells; format: cell-based, murine; details: 100 μg/mL
Method: as §1, with “The RAW 264.7 murine macrophage cells (obtained from ATCC) were cultured in DMEM high glucose (4.5 g/L) containing L-glutamine (Lonza, Belgium), supplemented with 10% FBS (Capricorn Scientific GmbH, South America) and 1% penicillin/streptomycin/fungizone (PSF) solution, and kept at 37°C in a 5% CO2 humidified environment.” left out
Nitric oxide (NO) production was evaluated in lipopolysaccharide (LPS)-stimulated RAW 264.7 cells by measuring the influence of tested compounds on the accumulation of nitrite, an indicator of NO in the cell supernatant, which can be detected with Griess reagent (Merck, Darmstadt, Germany). […] The microtiter plate was incubated for 10 min in the dark at room temperature, and the absorbance of the mixture was measured at 550 nm on a microplate reader (Synergy Multi-Mode Reader, BioTek, Winooski, United States of America). The quantity of nitrite was determined from a sodium nitrite standard curve, and the percentage of NO production was calculated based on the ability of each tested sample to inhibit nitric oxide production by LPS-stimulated RAW 264.7 cells compared to the control (cells treated with LPS without samples which was considered as 100% NO production). Additionally, the cell viability of treated cells was determined by using the MTT assay as previously described ([Mosmann, 1983]).

| IC50 [1] | IC50 [2] | IC50 [3] | IC50 [5] | SMILES | SI values HepG2 [2] | SI values MCF7 [3] | IC50 [4] | SI values A549 [5] | reduction of NO production [1] | cell viability of LPS-stimulated RAW 264.7 cells [6] | selectivity (SI) towards non-cancerous Vero cells ([4]; cancer cells except A549 cells) | selectivity (SI) for all cancer cells towards non-cancerous Vero cells ([4]; all cancer types (MCF-7, HepG2, Caco-2, A549)) |
| --- | --- | --- | --- | --- | --- | --- | --- | --- | --- | --- | --- | --- |
| > 100 µg/mL and > 324 µM | 54.5 µg/mL and 177 µM | 32.9 µg/mL and 107 µM | 143 µM and 44.2 µg/mL | C[C@]12COCC=C1C[C@H]1c3[nH]c4ccccc4c3CCN1C2=O [Compound 10, latifoliamide C] | 1.20 | 2.01 | 65.8 µg/mL and 213 µM | 1.49 | – | – | – | – |
| 18.2 µg/mL and 28.7 µM | 41.9 µg/mL and 66.3 µM | 5.96 µg/mL and 9.42 µM | 3.08 µM and 1.96 µg/mL | C[C@@H]1CC[C@]2(C(=O)O)CC[C@]3(C(=O)O)C(=CCC4[C@@]5(C)CC[C@H](O[C@H]6O[C@H](C)[C@@H](O)[C@H](O)[C@H]6O)C(C)(C)C5CC[C@]43C)C2[C@H]1C (stereo partly drawn) [Compound 6, quinovic acid 3-O-[α-D-quinovopyranoside]] | 0.14 | 1.04 | 6.21 µg/mL and 9.81 µM | 3.17 | at least 50% | significantly (p < 0.05) reduced the cell viability | ≤ 1 | – |
| 49 µg/mL and 77.4 µM | 47.2 µg/mL and 74.6 µM | 51.5 µg/mL and 81.4 µM | 69.9 µM and 44.2 µg/mL | C[C@@H]1CC[C@]2(C(=O)O)CC[C@]3(C(=O)O)C(=CCC4[C@@]5(C)CC[C@H](O[C@@H]6O[C@H](C)[C@@H](O)[C@H](O)[C@H]6O)C(C)(C)C5CC[C@]43C)C2[C@H]1C (stereo partly drawn) [Compound 9, quinovic acid 3-O-[β-D-quinovopyranoside]] | 0.99 | 0.91 | 47.1 µg/mL and 74.4 µM | 1.06 | at least 50% | significantly (p < 0.05) reduced the cell viability | – | ≤ 1 |

| SMILES | IC50 [1] | IC50 [2] | IC50 [3] | IC50 [5] | SI values HepG2 [2] | SI values MCF7 [3] | IC50 [4] | SI values A549 [5] | reduction of NO production [1] | cell viability of LPS-stimulated RAW 264.7 cells [6] | selectivity (SI) towards non-cancerous Vero cells ([4]; cancer cells except A549 cells) | selectivity (SI) for all cancer cells towards non-cancerous Vero cells ([4]; all cancer types (MCF-7, HepG2, Caco-2, A549)) |
| --- | --- | --- | --- | --- | --- | --- | --- | --- | --- | --- | --- | --- |
| CC1(C)CC[C@]2(C(=O)O)CC[C@]3(C)C(=CC[C@@H]4[C@@]5(C)CC[C@H](O)[C@@](C)(CO)[C@@H]5CC[C@]43C)[C@@H]2C1 [Compound 2, hederagenin] | 65.1 µg/mL and 138 µM | 24.9 µg/mL and 52.6 µM | 8.92 µg/mL and 18.9 µM | 40.1 µM and 19 µg/mL | 1.83 | 5.11 | 45.5 µg/mL and 96.3 µM | 2.40 | at least 50% | significantly (p < 0.05) reduced the cell viability | – | – |

From paper PMC10320002, “In vitro antiproliferative, anti-inflammatory effects and molecular docking studies of natural compounds isolated from Sarcocephalus pobeguinii (Hua ex Pobég)” (Frontiers in Pharmacology, 2023)
